Assay results reported in US10428013B2, “Amide compound, preparation method and uses thereof” (Shanghai Institute of Phamaceutical Industry, priority 2011, dated 2019).

system: Hyperlipemia Model of SD Rat; experiment: Screening in the hyperlipemia model of SD rat (fat emulsion by gavage; serum lipids); assay type: in vivo; settings: hyperlipemia SD rats, 10 mg/kg, dosed 21 days, X ± SD
Procedure: Materials and Methods for Screening with the Compounds Prepared in Experiment 1 to 21 in the Hyperlipemia Model of SD Rat
SD rats, male, 150-180 g, supplied by Shanghai Slaccas Laboratory Animal Company Limited.
Preparation of fat emulsion: 500 g lard oil was weighed and placed into a vessel, heated for melting, and upon heating up to the temperature of 100° C., 200 g cholesterol was added and fully dissolved, then 20 g propylthiouracil was added. After full stirring and dissolving, 500 ml Tween 80 was added to give an oil phase. Meanwhile, 600 ml distilled water and 400 ml 1,2-propylene glycol were heated to 60° C. in water bath, and then 40 g sodium deoxycholate was added with stirring, until full dissolution, to give an aqueous phase. The aqueous phase was added into the oil phase and fully and uniformly mixed, to prepare the fat emulsion.
Formulation of the solution for the compounds: an appropriate amount of compounds was triturated with appropriate amount of Tween 80 for homogeneous dispersion, and then sufficient CMC-Na solution was added and fully triturated, suspended to give the solution for the compounds.
The animals were fed for acclimation for 3 days, with 8 animals as blank control (Control) according to weight, and the rest was subject to intragastric administration of fat emulsion at 1 ml/100 g weight at A.M. 9:00-11:00 daily for continuous 2 weeks; the animals were fasted for 12 hours, and had 1 ml blood sampled at orbital cavity, which was measured with the Hitachi Automatic Biochemical Analyzer 7080 for serum cholesterol (CHO), triglyceride (TO), low-density lipoprotein (LDL-C) and high-density lipoprotein (HDL-C), with the animals having CHO of 4-7 mmol/L for experiment.
The animals dosed with fat emulsion for 2 weeks were divided into model group (Model), simvastatin group (Sim, 10 mg/kg) and compound group (40 mg/kg) according to weight, and continued to receive intragastric administration with fat emulsion; at the same time, the dosed group was administered with respective amount of drug, and the model group was administered with equal volume of solvent. Fat emulsion was dosed by gavage at A.M., and drug was dosed at P.M. The animals were weighed at Monday, and were observed. The animals were dosed for continuous 21 days, and fasted for 12 hours, with 1 ml blood sampling at orbital cavity. The liver was exposed and observed for pathologic condition; after slicing and weighing, it was fixed into the 4% formaldehyde solution for pathologic examination.
The Hitachi Automatic Biochemical Analyzer 7080 was used to measure serum cholesterol (CHO), triglyceride (TG), low-density lipoprotein (LDL-C) and high-density lipoprotein (HDL-C).
Laboratory data were expressed as X±SD (Standard Deviation), and comparison between groups was carried out by t-testing.

Compound	CHO1 Concentration (serum cholesterol) [mmol/L]	HDL-C Concentration (serum high-density lipoprotein) [mmol/L]	LDL-C Concentration (serum low-density lipoprotein) [mmol/L]	TG Concentration (serum triglyceride) [mmol/L]
CCC(C)(C)C(=O)O[C@H]1C[C@@H](C)C=C2C=C[C@H](C)[C@H](CC[C@@H]3C[C@@H](O)CC(=O)O3)[C@H]21 [Simvastatin, reference compound]	12.52 ± 1.34	1.52 ± 0.32	11.92 ± 1.44	1.41 ± 0.16

same assay, conditions: hyperlipemia SD rats, 40 mg/kg, dosed 21 days, X ± SD

Compound	CHO1 Concentration (serum cholesterol) [mmol/L]	HDL-C Concentration (serum high-density lipoprotein) [mmol/L]	LDL-C Concentration (serum low-density lipoprotein) [mmol/L]	TG Concentration (serum triglyceride) [mmol/L]
CC(C)(Oc1ccc(C(=O)c2ccc(Cl)cc2)cc1)C(=O)NCC(=O)c1ccc(OC(=O)C(C)(C)Oc2ccc(C(=O)c3ccc(Cl)cc3)cc2)cc1 [Compound 04]	10.02 ± 1.80	1.82 ± 0.19	9.84 ± 1.37	1.15 ± 0.12
CC(C)(Oc1ccc(Cl)cc1)C(=O)NCC(=O)c1ccc(O)cc1 [Compound 09]	13.64 ± 2.14	2.18 ± 0.22	11.64 ± 2.00	0.95 ± 0.14
Cc1ccc(C)c(OCCCC(C)(C)C(=O)NCC(=O)c2cc(O)cc(O)c2)c1 [Compound 19]	11.12 ± 1.01	1.36 ± 0.66	10.76 ± 1.25	0.94 ± 0.06
CC(C)(Oc1ccc(CCNC(=O)c2ccc(Cl)cc2)cc1)C(=O)NCC(=O)c1ccc(O)cc1 [Compound 01]	14.84 ± 1.06	1.56 ± 0.25	13.90 ± 1.23	0.66 ± 0.13
CC(C)(Oc1ccc(C2CC2(Cl)Cl)cc1)C(=O)NCC(=O)c1ccc(OC(=O)C(C)(C)Oc2ccc(C3CC3(Cl)Cl)cc2)cc1 (stereo not shown) [Compound 08]	12.92 ± 2.10	2.12 ± 0.27	11.41 ± 1.90	0.83 ± 0.13
Cc1ccc(C)c(OCCCC(C)(C)C(=O)NCC(=O)c2ccc(O)cc2)c1 [Compound 05]	15.30 ± 2.45	1.54 ± 0.24	14.38 ± 2.12	1.31 ± 0.15
CCC(CC)(CCCOc1cc(C)cc(C)c1)C(=O)NCC(=O)c1cccc(O)c1 [Compound 13]	20.17 ± 1.27	1.895 ± 0.39	19.31 ± 1.52	0.75 ± 0.25
CC(C)(Oc1ccc(C2CC2(Cl)Cl)cc1)C(=O)NCC(=O)c1ccc(O)cc1 (stereo not shown) [Compound 07]	14.99 ± 1.45	1.74 ± 0.46	13.90 ± 1.21	1.39 ± 0.16
CC(C)(Oc1ccc(Cl)cc1)C(=O)NCC(=O)c1ccc(OC(=O)C(C)(C)Oc2ccc(Cl)cc2)cc1 [Compound 10]	9.73 ± 1.79	2.66 ± 0.24	8.27 ± 1.46	0.94 ± 0.15
Cc1ccc(C)c(OCCCC(C)(C)C(=O)NC2CCC(C(=S)c3ccc(O)cc3)CC2)c1 (stereo not shown) [Compound 18]	15.04 ± 2.73	1.56 ± 0.51	13.47 ± 3.68	1.25 ± 0.33
CCC(C)(Oc1ccc(C2(c3ccc(OC(C)(CC)C(=O)NCC(=O)c4ccc(O)cc4)cc3)CCCCC2)cc1)C(=O)NCC(=O)c1ccc(O)cc1 (stereo not shown) [Compound 12]	20.17 ± 1.27	1.895 ± 0.39	19.31 ± 1.52	0.75 ± 0.25
COc1ccc(OCCCC(C)(C)C(=O)NCC(=O)c2ccc(O)c(C)c2)cc1C [Compound 14]	20.66 ± 3.23	2.25 ± 0.22	20.78 ± 3.46	0.99 ± 0.28
CC(C)(Oc1ccc(C(=O)c2ccc(Cl)cc2)cc1)C(=O)NCC(=O)c1ccc(O)cc1 [Compound 03]	12.63 ± 2.77	1.54 ± 0.20	11.11 ± 2.45	0.99 ± 0.18
CCC(CCCOc1cc(C)ccc1C)C(=O)N(C)CC(=O)c1cc(C)cc(O)c1 (stereo not shown) [Compound 16]	9.48 ± 1.27	1.32 ± 0.39	7.13 ± 1.52	0.78 ± 0.25
Cc1cc(C(=O)CCNC(=O)C(C)(CCCOc2cc(Cl)ccc2C)C(C)C)ccc1O (stereo not shown) [Compound 15]	15.00 ± 2.75	1.89 ± 0.26	14.04 ± 3.12	1.34 ± 0.48
Cc1ccc(C)c(OCCCC(C)(C)C(=O)NCC(=O)c2ccc(OC(=O)C(C)(C)CCCOc3cc(C)ccc3C)cc2)c1 [Compound 06]	16.37 ± 2.26	1.49 ± 0.29	15.78 ± 2.00	1.53 ± 0.16
CC(C)(Oc1ccc(CCNC(=O)c2ccc(Cl)cc2)cc1)C(=O)NCC(=O)c1ccc(OC(=O)C(C)(C)Oc2ccc(CCNC(=O)c3ccc(Cl)cc3)cc2)cc1 [Compound 02]	17.29 ± 3.23	1.68 ± 0.38	16.01 ± 2.99	0.68 ± 0.18
Cc1ccc(C)c(OCCCC(C)(C)C(=O)NCC(=N)c2ccc(O)c(Cl)c2)c1 [Compound 17]	10.54 ± 3.23	1.82 ± 0.22	8.13 ± 3.46	0.88 ± 0.28

system: Cholelithiasis Model of Golden Hamster; experiment: Screening in the cholelithiasis model of golden hamster (biochemical measurement of bile); assay type: in vivo, golden hamsters; settings: 10 mg/kg, dosed 45 days, X ± SD
Procedure: Screening with the Compounds Prepared in Experiment 1 to 21 in the Cholelithiasis Model of Golden Hamster
68 male golden hamsters, 50-60 g, supplied by Shanghai Slaccas Laboratory Animal Company Limited.
The animals were fed for acclimation for 3 days, with 8 animals as blank control (Control) according to weight. The control was dosed with normal rat feedstuff, and the rest was dosed with feedstuff leading to cholelithiasis (sucrose 32.1%, cheese 64.2%, cholesterol 0.2%, salt 3%, vitamin B1 […], concentrated fish liver oil 0.4%). The animals were fed for acclimation for another 7 days, and divided into model group (Model), simvastatin group (Sim, 10 mg/kg), Ursodesoxycholic acid group (UDCA, 40 mg/kg), and compound group, n=6/group.
[…] 2:00-3:00 daily. The animals were weighed at Monday, and observed for hair color, stool, and variation of activation level.
The animals were dosed for continuous 45 days and then fasted for 12 hours; were anesthetized with 30 mg/kg sodium secobarbital via intraperitoneal injection; had 1 ml blood sampled via abdominal aorta; had gallbladder exposed, with an orifice on the gallbladder being clamped by the ophthalmological pliers and bile in the gallbladder being sucked with 1 ml syringe.
The Hitachi Automatic Biochemical Analyzer 7080 was used to measure cholesterol (CHO), total total bilirubin (TBIL), total bile acid (TBA) and total protein (TP) in bile.
Laboratory data was expressed as X±SD, and comparison of measurement data between groups was carried out by t-testing, with non-parametric testing for enumeration data.

Compound	Cholesterol (CHO) in bile [mmol/L]	Total bile acid (TBA) in bile [mmol/L]	Total protein (TP) in bile [g/L]	Total total bilirubin (TBIL) in bile [µmol/L]
CCC(C)(C)C(=O)O[C@H]1C[C@@H](C)C=C2C=C[C@H](C)[C@H](CC[C@@H]3C[C@@H](O)CC(=O)O3)[C@H]21 [Simvastatin, reference compound]	1.07 ± 0.63	7.68 ± 3.31	35.52 ± 18.04	79.2 ± 34.2

same assay, conditions: 40 mg/kg, dosed 45 days, X ± SD

Compound	Cholesterol (CHO) in bile [mmol/L]	Total bile acid (TBA) in bile [mmol/L]	Total protein (TP) in bile [g/L]	Total total bilirubin (TBIL) in bile [µmol/L]
C[C@H](CCC(=O)O)[C@H]1CC[C@H]2[C@@H]3[C@@H](O)C[C@@H]4C[C@H](O)CC[C@]4(C)[C@H]3CC[C@]12C [Ursodesoxycholic acid, reference compound]	0.98 ± 0.47	12.23 ± 3.04	28.63 ± 10.37	89.4 ± 45.3
CCC(CCCOc1cc(C)ccc1C)C(=O)N(C)CC(=O)c1cc(C)cc(O)c1 (stereo not shown) [Compound 16]	0.97 ± 0.62	19.74 ± 12.14	40.70 ± 26.17	55.0 ± 29.38
